Test results taken from the supplement of paper PMC10307832.

Legend:
Test in all cases: relative viability (nuclei count vs DMSO), 5 days (fraction); higher = more cells survive
[1] = compound: C=C(c1ccc(C(=O)O)cc1)c1cc2c(cc1C)C(C)(C)CCC2(C)C [Bexarotene] + CC(=O)Nc1cccc(-n2c(=O)n(C3CC3)c(=O)c3c(Nc4ccc(I)cc4F)n(C)c(=O)c(C)c32)c1 [Trametinib] (partner 0.02 µM)
Procedure, shortened: (§1)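 Medians of duplicate plates are given as relative viability. That measure is the nuclei count in treated wells divided by the count in vehicle wells. Counts were taken on 4× images of lung cancer cell lines in 1536-well plates, 5 days after pin-tool dosing the day after seeding with one drug alone or a fixed anchor-drug dose plus five library-drug doses (not always all listed) in √10 steps.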

[2] = compound: C=C(c1ccc(C(=O)O)cc1)c1cc2c(cc1C)C(C)(C)CCC2(C)C [Bexarotene] + O=C(c1cc(Cc2n[nH]c(=O)c3ccccc23)ccc1F)N1CCN(C(=O)C2CC2)CC1 [Olaparib] (partner 8 µM)
Procedure, shortened: as §1

[3] = compound: C=C(c1ccc(C(=O)O)cc1)c1cc2c(cc1C)C(C)(C)CCC2(C)C [Bexarotene] + CS(=O)(=O)CCNCc1ccc(-c2ccc3ncnc(Nc4ccc(OCc5cccc(F)c5)c(Cl)c4)c3c2)o1 [Lapatinib] (partner 2 µM)
Procedure, shortened: as §1

[4] = compound: C=C(c1ccc(C(=O)O)cc1)c1cc2c(cc1C)C(C)(C)CCC2(C)C [Bexarotene] + N=C(N)NC(=N)NCCc1ccccc1 [Phenformin] (partner 250 µM)
Procedure, shortened: as §1

Cell Line	relative viability ([1]; first compound 0.08 µM)	relative viability ([1]; first compound 0.253 µM)	relative viability ([1]; first compound 0.8 µM)	relative viability ([1]; first compound 2.53 µM)	relative viability ([1]; first compound 8 µM)	relative viability ([2]; first compound 0.08 µM)	relative viability ([2]; first compound 0.253 µM)	relative viability ([2]; first compound 0.8 µM)	relative viability ([2]; first compound 2.53 µM)	relative viability ([2]; first compound 8 µM)	relative viability ([3]; first compound 0.08 µM)	relative viability ([3]; first compound 0.253 µM)	relative viability ([3]; first compound 0.8 µM)	relative viability ([3]; first compound 2.53 µM)	relative viability ([3]; first compound 8 µM)	relative viability ([4]; first compound 0.08 µM)	relative viability ([4]; first compound 0.253 µM)	relative viability ([4]; first compound 0.8 µM)	relative viability ([4]; first compound 2.53 µM)	relative viability ([4]; first compound 8 µM)
HARA	0.902	0.895	0.642	0.989	0.602	0.752	0.838	0.925	0.731	0.715	0.747	0.839	0.684	0.77	0.706	0.523	0.448	0.375	0.398	0.39
NCI-H2126	0.639	0.56	0.553	0.619	0.54	0.927	0.912	0.855	0.837	0.816	0.768	0.741	0.73	0.81	0.757	0.529	0.535	0.526	0.56	0.55
LXF-289	0.797	0.832	0.792	0.755	0.747	1.21	1.16	1.1	1.06	1.2	1	1.07	1.04	1.07	1.03	0.591	0.544	0.523	0.516	0.508
NCI-H460	0.153	0.155	0.13	0.199	0.177	0.54	0.568	0.409	0.536	0.492	1.01	1.03	0.948	0.981	0.731	0.552	0.543	0.494	0.455	0.427
NCI-H1395	1.18	1.03	1.15	0.908	1.1	0.441	0.543	0.476	0.459	0.504	1.05	0.935	0.926	0.902	0.997	0.456	0.457	0.412	0.415	0.471
NCI-H2170	0.901	0.916	0.886	0.785	0.768	0.576	0.645	0.574	0.609	0.562	0.264	0.245	0.275	0.305	0.273	0.457	0.403	0.388	0.357	0.361
NCI-H2009	0.336	0.331	0.28	0.391	0.413	0.772	0.697	0.727	0.664	0.663	0.794	1.14	1.06	1.06	0.999	0.554	0.527	0.526	0.479	0.479
